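These data come from cells grown in 96-well plates and exposed to compound for 48 hours at five concentrations. GI50 = concentration required for 50% inhibition of growth. TGI denotes the concentration required for complete inhibition of growth.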
Assays:
Test in all cases: NCI anticancer screen, dose series, 48 h
RPMI-8226 leukemia = tested on: RPMI-8226 leukemia
NCI-H522 lung = tested on: NCI-H522 lung
SK-MEL-5 melanoma = tested on: SK-MEL-5 melanoma
RXF 393 renal = tested on: RXF 393 renal
OVCAR-3 ovarian = tested on: OVCAR-3 ovarian
MALME-3M melanoma = tested on: MALME-3M melanoma
SR leukemia = tested on: SR leukemia
786-0 renal = tested on: 786-0 renal
HL-60(TB) leukemia = tested on: HL-60(TB) leukemia
UACC-257 melanoma = tested on: UACC-257 melanoma

SMILES | GI50 (RPMI-8226 leukemia) | TGI (RPMI-8226 leukemia) | GI50 (NCI-H522 lung) | TGI (NCI-H522 lung) | GI50 (SK-MEL-5 melanoma) | TGI (SK-MEL-5 melanoma) | GI50 (RXF 393 renal) | TGI (RXF 393 renal) | GI50 (OVCAR-3 ovarian) | TGI (OVCAR-3 ovarian) | GI50 (MALME-3M melanoma) | TGI (MALME-3M melanoma) | GI50 (SR leukemia) | GI50 (786-0 renal) | TGI (786-0 renal) | GI50 (HL-60(TB) leukemia) | TGI (HL-60(TB) leukemia) | GI50 (UACC-257 melanoma) | TGI (UACC-257 melanoma) | TGI (SR leukemia)
O=C1C2C(C(=O)[N]1[Hg][c]1cccs1)C1(Cl)C(Cl)=C(Cl)C2(Cl)C1(Cl)Cl (stereo not drawn) | 1.41 µM | 6.38 µM | 0.162 µM | 0.432 µM | 1.55 µM | 3.06 µM | 1.5 µM | 3 µM | 0.283 µM | 0.904 µM | 1.22 µM | 2.79 µM | 0.146 µM | 0.67 µM | 1.81 µM | 1.29 µM | 4.63 µM | 1.28 µM | 2.83 µM | 
Oc1ccc(CN2CCC(N3CCOCC3)CC2)c2cccnc12 | 32.7 µM | > 100 µM | 26.5 µM | 61.2 µM | 23.2 µM | 57 µM | 23 µM | 95.5 µM | 31.5 µM | > 100 µM | 29.1 µM | > 100 µM | 34 µM | 42.2 µM | > 100 µM | 22.7 µM | 51 µM | 32.3 µM | 76.5 µM | > 100 µM
O=c1ccc(N=Nc2ccc([N+](=O)[O-])cc2)ccc1O | 3.15 µM | > 100 µM | 3.42 µM | 28.3 µM | 6.55 µM | > 100 µM | 7.37 µM | > 100 µM | 3.33 µM | 25.8 µM | 14.8 µM | > 100 µM | 4.13 µM | 5.99 µM | > 100 µM | 3.47 µM | 38.8 µM | 10.6 µM | 81.6 µM | > 100 µM
CCN1/C(=C/C=C/c2n(-c3ccccc3)c3ccc(-c4nc5ccccc5s4)cc3[n+]2CC)N(c2ccccc2)c2ccc(-c3nc4ccccc4s3)cc21 | 0.303 µM | > 50 µM | 0.585 µM | 3.41 µM | 0.184 µM | 1.27 µM | 0.563 µM | 7.37 µM | 1.01 µM | 10.3 µM | 0.161 µM | 0.838 µM | 1.4 µM | 0.602 µM | > 50 µM | 0.464 µM | > 50 µM | 0.539 µM | > 15.4 µM | > 50 µM
Fc1ccc(-c2nn3c(-c4ccc(F)c(Cl)c4)nnc3s2)cc1 | 22.8 µM | > 50 µM | 20.8 µM | > 50 µM | 44.2 µM | > 50 µM | 0.688 µM | 18.7 µM | > 50 µM | > 50 µM | > 50 µM | > 50 µM | 43.8 µM | 35.3 µM | > 50 µM | 27.4 µM | > 50 µM | 10.6 µM | 41.6 µM | > 50 µM
O=c1c2c3c(sc2n2c(-c4cc(-c5ccccc5)no4)nnc2n1Cc1ccccc1)CCCC3 | 4.23 µM | > 48.8 µM | 3.4 µM | 28.1 µM | 9.77 µM | 22.9 µM | 4.13 µM | 26.7 µM | 8.61 µM | 30.5 µM | 32.1 µM | 97.3 µM | 4.94 µM | 20.5 µM | 98.9 µM | 4.65 µM | 29.9 µM | 23.9 µM | > 74 µM | > 42 µM
Cc1cc(NCCCNc2ccnc3cc(Cl)ccc23)nc(N2CCN(C)CC2)n1 | 2.56 µM | 7.45 µM | 2.43 µM | 11.1 µM | 1.67 µM | 3.24 µM | 1.35 µM | 4.99 µM | 5.79 µM | 25.7 µM | 2.12 µM | 4.47 µM | 1.81 µM | 14.7 µM | 38.3 µM | 2.99 µM | 9.06 µM | 1.8 µM | 3.88 µM | 6.41 µM
C/C=C/C/C=C/CCC(=O)[C@H]1O[C@H]1C(N)=O | 6.58 µM | 54.2 µM |  | 25.6 µM | 12.5 µM | 25.2 µM | 5.07 µM | 19.1 µM | 13.9 µM | 27.4 µM | 13.7 µM | 32.9 µM | 12.6 µM | 14.8 µM | 36.1 µM | 5.19 µM | 25.2 µM | 13.1 µM | 27.3 µM | > 100 µM
